Experimental data published in US8569302B2, “Inhibitors of flaviviridae viruses” (Gilead Sciences, Inc., priority 2009, dated 2013).

Test system: human hepatoma Huh-7 cell line harboring a HCV replicon
Experiment: HCV replicon assay (inhibition of viral replication, luciferase readout)
Format: cell-based
Details: Hepatitis C virus, 72 h, Huh-7 HCV replicon cells, 3 days incubation
How it was run: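 Huh-7 replicon cells were exposed to 10-point 3-fold compound dilutions (0.44% DMSO) for 3 days at 37 °C. Replicon replication was read by Dual-Glo luciferase, with background from protease-inhibitor wells subtracted, and viability by calcein AM. EC50/CC50 came from a Hill-equation fit versus DMSO controls.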

Structure (SMILES) | inhibition at 2 µM [%]
Cc1nnc(S[C@H]2CC[C@H](N(c3cc(C#CC(C)(C)C)sc3C(=O)O)C(=O)[C@H]3CC[C@H](C)CC3)CC2)s1 [Compound 102, 5-(3,3-Dimethylbut-1-ynyl)-3-(4-methyl-N-(4-(5-methyl-1,3,4-thiadiazol-2-ylthio)cyclohexyl)cyclohexanecarboxamido)thiophene-2-carboxylic acid] | 99.9
Cc1nnc(S[C@H]2CC[C@@H](N(c3cc(C#CC(C)(C)C)sc3C(=O)O)C(=O)[C@H]3CC[C@H](C)CC3)CC2)s1 [Compound 103, 5-(3,3-Dimethylbut-1-ynyl)-3-(4-methyl-N-(4-(5-methyl-1,3,4-thiadiazol-2-ylthio)cyclohexyl)cyclohexanecarboxamido)thiophene-2-carboxylic acid] | 98.3
Cn1nnnc1S[C@H]1CC[C@@H](N(c2cc(C#CC(C)(C)C)sc2C(=O)O)C(=O)[C@H]2CC[C@H](C)CC2)CC1 [Compound 104, 5-(3,3-Dimethylbut-1-ynyl)-3-(4-methyl-N-(4-(1-methyl-1H-tetrazol-5-ylthio)cyclohexyl)cyclohexanecarboxamido)thiophene-2-carboxylic acid] | 98.7
CC(C)(C)C#Cc1cc(N(C(=O)[C@H]2CC[C@H](C)CC2)[C@H]2CC[C@@H](Sc3nncs3)CC2)c(C(=O)O)s1 [Compound 105, 3-(N-(4-(1,3,4-Thiadiazol-2-ylthio)cyclohexyl)-4-methylcyclohexanecarboxamido)-5-(3,3-dimethylbut-1-ynyl)thiophene-2-carboxylic acid] | 99.9
CC(C)(C)C#Cc1cc(N(C(=O)[C@H]2CC[C@H](C)CC2)[C@H]2CC[C@H](Sc3nccs3)CC2)c(C(=O)O)s1 [Compound 106, 5-(3,3-Dimethylbut-1-ynyl)-3-(4-methyl-N-(4-(thiazol-2-ylthio)cyclohexyl)cyclohexanecarboxamido)thiophene-2-carboxylic acid] | 99.9
CC(C)(C)C#Cc1cc(N(C(=O)[C@H]2CC[C@H](C)CC2)[C@H]2CC[C@@H](Sc3nccs3)CC2)c(C(=O)O)s1 [Compound 107, 5-(3,3-Dimethylbut-1-ynyl)-3-(4-methyl-N-(4-(thiazol-2-ylthio)cyclohexyl)cyclohexanecarboxamido)thiophene-2-carboxylic acid] | 98.9
CC(C)(C)C#Cc1cc(N(C(=O)[C@H]2CC[C@H](C)CC2)[C@H]2CC[C@@H](Sc3ncccn3)CC2)c(C(=O)O)s1 [Compound 108, 5-(3,3-Dimethylbut-1-ynyl)-3-(4-methyl-N-(4-(pyrimidin-2-ylthio)cyclohexyl)cyclohexanecarboxamido)thiophene-2-carboxylic acid] | 99.3
CC(C)(C)C#Cc1cc(N(C(=O)[C@H]2CC[C@H](C)CC2)[C@H]2CC[C@H](S(=O)(=O)C3CCOCC3)CC2)c(C(=O)O)s1 [Compound 109, 5-(3,3-Dimethylbut-1-ynyl)-3-(4-methyl-N-(4-(tetrahydro-2H-pyran-4-ylsulfonyl)cyclohexyl)cyclohexanecarboxamido)thiophene-2-carboxylic acid] | 99.9
Cn1nnnc1S(=O)(=O)[C@H]1CC[C@H](N(c2cc(C#CC(C)(C)C)sc2C(=O)O)C(=O)[C@H]2CC[C@H](C)CC2)CC1 [Compound 110, 5-(3,3-Dimethylbut-1-ynyl)-3-(4-methyl-N-(4-(1-methyl-1H-tetrazol-5-ylsulfonyl)cyclohexyl)cyclohexanecarboxamido)thiophene-2-carboxylic acid] | 100
Cn1nnnc1[S+]([O-])[C@H]1CC[C@H](N(c2cc(C#CC(C)(C)C)sc2C(=O)O)C(=O)[C@H]2CC[C@H](C)CC2)CC1 (stereo partly drawn) [Compound 111, 5-(3,3-Dimethylbut-1-ynyl)-3-((1r,4S)-4-methyl-N-(4-((R)-1-methyl-1H-tetrazol-5-ylsulfinyl)cyclohexyl)cyclohexanecarboxamido)thiophene-2-carboxylic acid] | 99.8
CC1CCC(C(=O)N(CCOc2cccnc2)c2cc(C#CC(C)(C)C)sc2C(=O)O)CC1 (centres unmarked) [Compound 138] | 99.7
CC1CCC(C(=O)N(CCOc2ccccn2)c2cc(C#CC(C)(C)C)sc2C(=O)O)CC1 (centres unmarked) [Compound 139, 5-(3,3-dimethyl-but-1-ynyl)-3-{(4-methyl-cyclohexanecarbonyl)-[3-(pyridin-2-yloxy)-ethyl]-amino}-thiophene-2-carboxylic acid] | 96.4
C[C@@H](CCOc1cncnc1)N(c1cc(C#CC(C)(C)C)sc1C(=O)O)C(=O)[C@H]1CC[C@H](C)CC1 [Compound 143, 5-(3,3-dimethyl-but-1-ynyl)-3-{(trans-4-methyl-cyclohexanecarbonyl)-[1-(S)-methyl-3-(pyrimidin-5-yloxy)-propyl]-amino}-thiophene-2-carboxylic acid] | 100
CCOc1cc(OCC[C@H](C)N(c2cc(C#CC(C)(C)C)sc2C(=O)O)C(=O)[C@H]2CC[C@H](C)CC2)c2ccc(OC)c(C)c2n1 [Compound 144, 5-(3,3-dimethyl-but-1-ynyl)-3-[[3-(2-ethoxy-7-methoxy-8-methyl-quinolin-4-yloxy)-1-(S)-methyl-propyl]-(4-methyl-cyclohexanecarbonyl)-amino]-thiophene-2-carboxylic acid] | 95.4
CC(C)(C)C#Cc1cc(N(C(=O)[C@H]2CC[C@H](C)CC2)[C@H]2C[C@@H](Oc3ccccn3)C2)c(C(=O)O)s1 [Compound 146, 5-(3,3-Dimethylbut-1-ynyl)-3-(4-methyl-N-(3-(pyridin-2-yloxy)cyclobutyl)cyclohexanecarboxamido)thiophene-2-carboxylic acid] | 99.2
CC(C)(C)C#Cc1cc(N(C(=O)[C@H]2CC[C@H](C)CC2)[C@H]2CC[C@H](Oc3cc[nH]c(=O)n3)CC2)c(C(=O)O)s1 [Compound 147, 5-(3,3-Dimethyl-but-1-ynyl)-3-{(trans-4-methyl-cyclohexanecarbonyl)-[trans-4-(2-oxo-1,2-dihydro-pyrimidin-4-yloxy)-cyclohexyl]-amino}-thiophene-2-carboxylic acid] | 99.9
CCc1cnc(O[C@H]2CC[C@H](N(c3cc(C#CC(C)(C)C)sc3C(=O)O)C(=O)[C@H]3CC[C@H](C)CC3)CC2)nc1 [Compound 148, 5-(3,3-Dimethylbut-1-ynyl)-3-(N-(4-(5-ethylpyrimidin-2-yloxy)cyclohexyl)-4-methylcyclohexanecarboxamido)thiophene-2-carboxylic acid] | 96.6
CC(C)(C)C#Cc1cc(N(C(=O)[C@H]2CC[C@H](C)CC2)[C@H]2CC[C@H](Oc3cccnc3N3CCCC3)CC2)c(C(=O)O)s1 [Compound 149, 5-(3,3-Dimethylbut-1-ynyl)-3-(4-methyl-N-(4-(2-(pyrrolidin-1-yl)pyridin-3-yloxy)cyclohexyl)cyclohexanecarboxamido)thiophene-2-carboxylic acid] | 99
CC(C)(C)C#Cc1cc(N(C(=O)[C@H]2CC[C@H](C)CC2)[C@H]2CC[C@H](Oc3cc(N4CCCC4)ncn3)CC2)c(C(=O)O)s1 [Compound 150, 5-(3,3-Dimethylbut-1-ynyl)-3-(4-methyl-N-(4-(6-(pyrrolidin-1-yl)pyrimidin-4-yloxy)cyclohexyl)cyclohexanecarboxamido)thiophene-2-carboxylic acid] | 99.6
CN(C)c1nc(O[C@H]2CC[C@H](N(c3cc(C#CC(C)(C)C)sc3C(=O)O)C(=O)[C@H]3CC[C@H](C)CC3)CC2)ncc1F [Compound 151, 3-(N-(4-(4-(Dimethylamino)-5-fluoropyrimidin-2-yloxy)cyclohexyl)-4-methylcyclohexanecarboxamido)-5-(3,3-dimethylbut-1-ynyl)thiophene-2-carboxylic acid] | 99.4
CC(C)(C)C#Cc1cc(N(C(=O)[C@H]2CC[C@H](C)CC2)[C@H]2CC[C@H](Oc3cccc(N4CCCC4)n3)CC2)c(C(=O)O)s1 [Compound 152, 5-(3,3-Dimethylbut-1-ynyl)-3-(4-methyl-N-(4-(6-(pyrrolidin-1-yl)pyridin-2-yloxy)cyclohexyl)cyclohexanecarboxamido)thiophene-2-carboxylic acid] | 73.7
CC(C)(C)C#Cc1cc(N(C(=O)[C@H]2CC[C@H](C)CC2)[C@H]2CC[C@H](Oc3cncc(N4CCCC4)n3)CC2)c(C(=O)O)s1 [Compound 153, 5-(3,3-Dimethylbut-1-ynyl)-3-(4-methyl-N-(4-(6-(pyrrolidin-1-yl)pyrazin-2-yloxy)cyclohexyl)cyclohexanecarboxamido)thiophene-2-carboxylic acid] | 100
Cc1nsc(OC2CCC(N(c3cc(C#CC(C)(C)C)sc3C(=O)O)C(=O)[C@H]3CC[C@H](C)CC3)CC2)n1 (some centres unmarked) [Compound 154, 5-(3,3-Dimethylbut-1-ynyl)-3-(4-methyl-N-(4-(3-methyl-1,2,4-thiadiazol-5-yloxy)cyclohexyl)cyclohexanecarboxamido)thiophene-2-carboxylic acid] | 99.7
CC(C)(C)C#Cc1cc(N(C(=O)[C@H]2CC[C@H](C)CC2)C2CCC(Oc3nc(CN4CCCC4)cs3)CC2)c(C(=O)O)s1 (some centres unmarked) [Compound 155, 5-(3,3-Dimethylbut-1-ynyl)-3-(4-methyl-N-(4-(4-(pyrrolidin-1-ylmethyl)thiazol-2-yloxy)cyclohexyl)cyclohexanecarboxamido)thiophene-2-carboxylic acid] | 100
CN(C)Cc1csc(OC2CCC(N(c3cc(C#CC(C)(C)C)sc3C(=O)O)C(=O)[C@H]3CC[C@H](C)CC3)CC2)n1 (some centres unmarked) [Compound 156, 3-(N-(4-(4-((Dimethylamino)methyl)thiazol-2-yloxy)cyclohexyl)-4-methylcyclohexanecarboxamido)-5-(3,3-dimethylbut-1-ynyl)thiophene-2-carboxylic acid] | 100

Same assay, conditions: Huh-7 HCV replicon cells, 3 days incubation

Structure (SMILES) | % inhibition at 2μM [%]
CC(C)(C)C#Cc1cc(N(C(=O)[C@H]2CC[C@H](C)CC2)[C@H]2C[C@@H](Oc3ccc[n+]([O-])c3)C2)c(C(=O)O)s1 [Compound 145, 5-(3,3-Dimethyl-but-1-ynyl)-3-{(trans-4-methyl-cyclohexanecarbonyl)-[cis-3-(pyridin-3-yloxy-N-oxide)-cyclobutyl]-amino}-thiophene-2-carboxylic acid] | 99.5
